Measured values reported in article PMC6321168, “Comparative Study on Excretive Characterization of Main Components in Herb Pair Notoginseng-Safflower and Single Herbs by LC–MS/MS” (Pharmaceutics, 2018).

Assay: Fecal excretion study in rats after oral NS, SF or CNS (LC–MS/MS)
Format: in vivo
Conditions: rat feces
Description: The animal room was set at constant temperature of 20 ± 2 °C with humidity of 50 ± 20% and 12/12 h light/dark cycle.
Eighteen male rats were fasted for 12 h before starting the experiment. The rats were divided into three groups at random (n = 6) and received NS (60 mg/kg), SF (50 mg/kg), and NS (60 mg/kg) + SF (50 mg/kg), respectively, by oral gavage. The rats were placed in separate metabolic cages. The urine samples were collected at 0–2, 2–4, 4–6, 6–8, 8–12, 12–24, 24–36, 36–48, 48–72, 72–96, and 96–120 h. The feces samples were collected at 0–4, 4–8, 8–12, 12–24, 24–36, 36–48, 48–72, 72–96, and 96–120 h. The urine volume was recorded and the dry feces were measured for each collection period. Samples were stored at −80 °C until analysis.
Feces samples were homogenized in ultrapure water (1 g/15 mL), soaked for 30 min, ultrasonically extracted for 30 min and centrifuged at 9000 rpm for 8 min. An aliquot of 200 μL feces water extraction solution was mixed with 10 μL of IS and then extracted three times with water-saturated n-BuOH (150 μL). The upper organic phase was combined and evaporated to dryness using a ZLS-2 vacuum centrifugal concentrator. The residue was treated as the urine sample and a 1-μL aliquot was injected for LC–MS analysis.
Ultra fast liquid chromatography (UFLC) analysis was performed using a Shimadzu UFLC system (DGU-20A3R Degasser; LC-20AD pump; SIL-20AXR Autosampler; CTO-20AC Column Oven) (Nakagyo-Ku, Koyoto, Japan). […] Because of the different endogenous substances in the urine and feces samples, different elution gradients were used to alleviate the matrix effects for the analytes.
The mass spectrometric detection was performed on an ABSciex 4500 Qtrap mass spectrometer (ABSciex, Foster City, CA, USA) equipped with a negative electrospray ionization (ESI) interface using multiple reaction monitoring (MRM). The MS parameters were optimized under the selected ion monitoring conditions as follows: curtain gas, 35 psi; ionspray voltage, 4500 V; turbo gas temperature, 450 °C; GS1, 45 psi; GS2, 45 psi. All data were acquired and analyzed by Analyst software (Versions 1.6.2) from ABSciex.
The accumulative excretion percentage was calculated for each analyte as follows. Excretion at time (t) = [concentration of the analyte (ng/mL) at t] × total urine (or feces) volume (mL) at t. The cumulative excretion up to time t (mg) was expressed as a percent (%) cumulative excretion by dividing by the total amount of the analyte ingested (mg): % Cumulative Excretion = 100 × (Σt excretiont) total ingested.

SMILES: CC(C)=CCC[C@](C)(O[C@@H]1O[C@H](CO[C@@H]2O[C@H](CO)[C@@H](O)[C@H](O)[C@H]2O)[C@@H](O)[C@H](O)[C@H]1O)[C@H]1CC[C@]2(C)[C@@H]1[C@H](O)C[C@@H]1[C@@]3(C)CC[C@H](O[C@@H]4O[C@H](CO)[C@@H](O)[C@H](O)[C@H]4O[C@@H]4O[C@H](CO)[C@@H](O)[C@H](O)[C@H]4O)C(C)(C)[C@@H]3CC[C@]12C [ginsenoside Rb1]
- concentration at 4 h (male, Sprague Dawley, oral CNS 110 mg/kg, 4 h): 555 ± 763 ng/mL
- concentration at 8 h (male, Sprague Dawley, oral CNS 110 mg/kg, 8 h): 1080 ± 431 ng/mL
- concentration at 12 h (male, Sprague Dawley, oral CNS 110 mg/kg, 12 h): 899 ± 96 ng/mL
- concentration at 24 h (male, Sprague Dawley, oral CNS 110 mg/kg, 24 h): 802 ± 25 ng/mL
- concentration at 36 h (male, Sprague Dawley, oral CNS 110 mg/kg, 36 h): 548 ± 36 ng/mL
- concentration at 48 h (male, Sprague Dawley, oral CNS 110 mg/kg, 48 h): 552 ± 30 ng/mL
- concentration at 72 h (male, Sprague Dawley, oral CNS 110 mg/kg, 72 h): 455 ± 377 ng/mL
- concentration at 96 h (male, Sprague Dawley, oral CNS 110 mg/kg, 96 h): 21 ± 20 ng/mL
- concentration at 4 h (male, Sprague Dawley, oral NS 60 mg/kg, 4 h): 1080 ± 156 ng/mL
- concentration at 8 h (male, Sprague Dawley, oral NS 60 mg/kg, 8 h): 767 ± 29 ng/mL
- concentration at 12 h (male, Sprague Dawley, oral NS 60 mg/kg, 12 h): 2060 ± 137 ng/mL
- concentration at 24 h (male, Sprague Dawley, oral NS 60 mg/kg, 24 h): 2180 ± 90 ng/mL
- concentration at 36 h (male, Sprague Dawley, oral NS 60 mg/kg, 36 h): 920 ± 48 ng/mL
- concentration at 48 h (male, Sprague Dawley, oral NS 60 mg/kg, 48 h): 1020 ± 52 ng/mL
- concentration at 72 h (male, Sprague Dawley, oral NS 60 mg/kg, 72 h): 120 ± 9 ng/mL
- concentration at 96 h (male, Sprague Dawley, oral NS 60 mg/kg, 96 h): 19 ± 4 ng/mL
- concentration at 120 h (male, Sprague Dawley, oral NS 60 mg/kg, 120 h): 17 ± 3 ng/mL
- Accumulative excretion amount (oral CNS 110 mg/kg, 4 h): 7.072 ± 10.199 µg
- Accumulative excretion percentage (oral CNS 110 mg/kg, 4 h): 0.192±0.275%
- Excretion amount (oral CNS 110 mg/kg, 4 h): 7.072 ± 10.199 µg
- Accumulative excretion amount (oral CNS 110 mg/kg, 8 h): 22.570 ± 15.790 µg
- Accumulative excretion percentage (oral CNS 110 mg/kg, 8 h): 0.607±0.426%
- Excretion amount (oral CNS 110 mg/kg, 8 h): 15.499 ± 6.228 µg
- Accumulative excretion amount (oral CNS 110 mg/kg, 12 h): 36.062 ± 14.935 µg
- Accumulative excretion percentage (oral CNS 110 mg/kg, 12 h): 0.968±0.409%
- Excretion amount (oral CNS 110 mg/kg, 12 h): 13.492 ± 4.335 µg
- Accumulative excretion amount (oral CNS 110 mg/kg, 24 h): 48.081 ± 16.475 µg
- Accumulative excretion percentage (oral CNS 110 mg/kg, 24 h): 1.282±0.443%
- Excretion amount (oral CNS 110 mg/kg, 24 h): 12.018 ± 3.497 µg
- Accumulative excretion amount (oral CNS 110 mg/kg, 36 h): 56.222 ± 17.772 µg
- Accumulative excretion percentage (oral CNS 110 mg/kg, 36 h): 1.501±0.476%
- Excretion amount (oral CNS 110 mg/kg, 36 h): 8.141 ± 2.259 µg
- Accumulative excretion amount (oral CNS 110 mg/kg, 48 h): 64.538 ± 19.434 µg
- Accumulative excretion percentage (oral CNS 110 mg/kg, 48 h): 1.723±0.522%
- Excretion amount (oral CNS 110 mg/kg, 48 h): 8.316 ± 2.614 µg
- Accumulative excretion amount (oral CNS 110 mg/kg, 72 h): 71.863 ± 19.005 µg
- Accumulative excretion percentage (oral CNS 110 mg/kg, 72 h): 1.923±0.515%
- Excretion amount (oral CNS 110 mg/kg, 72 h): 7.325 ± 6.432 µg
- Accumulative excretion amount (oral CNS 110 mg/kg, 96 h): 72.213 ± 19.048 µg
- Accumulative excretion percentage (oral CNS 110 mg/kg, 96 h): 1.931±0.512%
- Excretion amount (oral CNS 110 mg/kg, 96 h): 0.350 ± 0.350 µg
- Accumulative excretion amount (oral CNS 110 mg/kg, 120 h): 72.213 ± 19.048 µg
- Accumulative excretion percentage (oral CNS 110 mg/kg, 120 h): 1.931±0.513%
- Accumulative excretion amount (oral NS 60 mg/kg, 4 h): 15.357 ± 4.697 µg
- Accumulative excretion percentage (oral NS 60 mg/kg, 4 h): 0.361±0.113%
- Excretion amount (oral NS 60 mg/kg, 4 h): 15.357 ± 4.697 µg
- Accumulative excretion amount (oral NS 60 mg/kg, 8 h): 26.423 ± 8.057 µg
- Accumulative excretion percentage (oral NS 60 mg/kg, 8 h): 0.624±0.192%
- Excretion amount (oral NS 60 mg/kg, 8 h): 11.066 ± 3.551 µg
- Accumulative excretion amount (oral NS 60 mg/kg, 12 h): 56.148 ± 17.467 µg
- Accumulative excretion percentage (oral NS 60 mg/kg, 12 h): 1.312±0.411%
- Excretion amount (oral NS 60 mg/kg, 12 h): 29.724 ± 9.595 µg
- Accumulative excretion amount (oral NS 60 mg/kg, 24 h): 87.371 ± 26.505 µg
- Accumulative excretion percentage (oral NS 60 mg/kg, 24 h): 2.043±0.622%
- Excretion amount (oral NS 60 mg/kg, 24 h): 31.223 ± 9.132 µg
- Accumulative excretion amount (oral NS 60 mg/kg, 36 h): 100.721 ± 31.049 µg
- Accumulative excretion percentage (oral NS 60 mg/kg, 36 h): 2.354±0.725%
- Excretion amount (oral NS 60 mg/kg, 36 h): 13.350 ± 4.715 µg
- Accumulative excretion amount (oral NS 60 mg/kg, 48 h): 115.527 ± 36.105 µg
- Excretion amount (oral NS 60 mg/kg, 48 h): 14.806 ± 5.076 µg
- Accumulative excretion amount (oral NS 60 mg/kg, 72 h): 117.237 ± 36.600 µg
- Accumulative excretion percentage (oral NS 60 mg/kg, 72 h): 2.731±0.854%
- Excretion amount (oral NS 60 mg/kg, 72 h): 1.710 ± 0.525 µg
- Accumulative excretion amount (oral NS 60 mg/kg, 96 h): 117.502 ± 36.686 µg
- Accumulative excretion percentage (oral NS 60 mg/kg, 96 h): 2.741±0.854%
- Excretion amount (oral NS 60 mg/kg, 96 h): 0.264 ± 0.103 µg
- Accumulative excretion amount (oral NS 60 mg/kg, 120 h): 117.753 ± 36.774 µg
- Accumulative excretion percentage (oral NS 60 mg/kg, 120 h): 2.745±0.858%
- Excretion amount (oral NS 60 mg/kg, 120 h): 0.252 ± 0.100 µg
